pIC50: −log10 of the molar value. Calls of active or inactive are those of the source. No rule for the calls is given here.

The experiment relates to Trypanosoma brucei growth inhibition, luminescence. In words: antitrypanosomal activity against T. brucei – luminescence (AID 1159562).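 Also: parasites grew with compound for 24 h before the luminescence read.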
A word on the pIC50: it is −log10 of the IC50, conventionally taken in molar units. `Cc1ccc(NC(=O)c2ccnc(N3CCCC3)c2)cc1-c1cc(C(N)=O)ccc1C`: the pIC50 is 6.60.

As to `CCCCCNC(=O)c1c[nH]c2ccc(S(=O)(=O)N(C)c3ccc(OCC)cc3)cc2c1=O`, the pIC50 was 6.60.

With `O=C(CN1CCN(S(=O)(=O)c2cccc([N+](=O)[O-])c2)CC1)Nc1ccc(Oc2ccccc2)cc1`, the pIC50 is 4.80.

Regarding `Cc1nn(-c2nc3ccccc3s2)c2c1C(c1ccc(OCC(N)=O)cc1)SCC(=O)N2` (configuration not stated), the pIC50 was 7.49.

As for `COc1cc(OC)cc(C(NS(=O)(=O)c2ccc(Cl)c(C(F)(F)F)c2)c2nccn2C)c1` (configuration not stated), the pIC50 was 5.10.

By IC50 is commonly meant the midpoint of a concentration-inhibition curve. On to `COCc1cnc2c(c1SCc1c(F)cccc1Cl)c(=O)n(C)c(=O)n2C`, for which the IC50 was > 40 µM (inactive).

As for `Cc1nn(C2CCS(=O)(=O)C2)c(C)c1CN(C)C(=O)C=Cc1sc2ccccc2c1Cl` (configuration not stated), the pIC50 was 4.60.

The values are drawn from PubChem BioAssay AID1159562 (GlaxoSmithKline (GSK), 2015).
